Laboratory results reported in patent US20240148821A1, “PHARMACEUTICAL USE OF CYCLIC PEPTIDE COMPOUND” (CHUGAI SEIYAKU KABUSHIKI KAISHA, priority 2021, published 2024).
Numbered stars: 1 amine (or outer) side, 2 acyl side, 3 side chain; on linkers, the order of the positions; unused ones are H or OH. Bridge positions count the residues as written; N and C are the ends. Square brackets hold non-standard residues; d marks the D form. Peptide text beside a SMILES is read from it. * marks the point of attachment. hPhe(3-Cl-4-CF3) = N[C@@H](CCc1ccc(C(F)(F)F)c(Cl)c1)C(=O)O; hPhe(3-F,4-CF3) = N[C@@H](CCc1ccc(C(F)(F)F)c(F)c1)C(=O)O; NEtPhe(4-CF3) = CCN[C@@H](Cc1ccc(C(F)(F)F)cc1)C(=O)O; NMePhe(4-CF3) = CN[C@@H](Cc1ccc(C(F)(F)F)cc1)C(=O)O; hPhe(4-CF3) = N[C@@H](CCc1ccc(C(F)(F)F)cc1)C(=O)O; NMePhe(4-Cl) = CN[C@@H](Cc1ccc(Cl)cc1)C(=O)O; X111 = CN([C@@H](CCC1CCOCC1)C(=O)[*:2])[*:1]; NMedβ3hAla = C[C@H](CC(=O)[*:2])N(C)[*:1]; NMeGly(cPent) = CN[C@H](C(=O)O)C1CCCC1; NMeAla(cPr) = CN[C@@H](CC1CC1)C(=O)O; X136 = O=C(CN(CCN1CCNCC1)[*:1])[*:2]; NMeCha = CN[C@@H](CC1CCCCC1)C(=O)O; Hyp = O=C(O)[C@@H]1C[C@@H](O)CN1; NMeChg = CN[C@H](C(=O)O)C1CCCCC1; NMeF = CN[C@@H](Cc1ccccc1)C(=O)O; NMeI = CC[C@H](C)[C@H](NC)C(=O)O; d(β3hL) = CC(C)C[C@@H](N)CC(=O)O; NMeD = CN[C@@H](CC(=O)O)C(=O)O; NMeL = CN[C@@H](CC(C)C)C(=O)O; NMehSer = CN[C@@H](CCO)C(=O)O; NMeV = CN[C@H](C(=O)O)C(C)C; d(β3hA) = C[C@@H](N)CC(=O)O; NMeS = CN[C@@H](CO)C(=O)O; NMeA = CN[C@@H](C)C(=O)O; Piperidide = C1CCN(*)CC1; Pyrrolidide = C1CCN(*)C1; Ac5c = NC1(C(=O)O)CCCC1; Aze = O=C(O)[C@@H]1CCN1; Ac4c = NC1(C(=O)O)CCC1; Cyclopropyl = C1CC1*; βAla = NCCC(=O)O; Sar = CNCC(=O)O

Target: protein-protein interaction between Kras and SOS1 (biotin-tagged human Kras loaded with GDP, His-tagged human SOS1) (Homo sapiens (Human), UniProt P01116, G12D)
Test: Protein-protein interaction inhibition between Kras and SOS1 (KrasG12D-SOS PPI) using AlphaScreen;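 further: kras produced in E. coli, Ni-coupled donor beads and streptavidin acceptor beads, excitation 680 nm with emission detected at 520–620 nm via singlet oxygen transfer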
Format: biochemical
Details: AlphaScreen; biotin-tagged human Kras loaded with GDP, His-tagged human SOS1; read-out: KRAS G12D-SOS PPI IC50

Row | SMILES | IC50 [nM]
1 | CC[C@H](C)[C@@H]1NC(=O)[C@H](CC(C)C)N(C)C(=O)C[C@@H](C(=O)N2CCCCC2)N(C)C(=O)[C@H](C2CCCCC2)N(C)C(=O)C2(CCCC2)NC(=O)[C@H](CCOC)N(C)C(=O)[C@H](CCc2ccc(C(F)(F)F)c(Cl)c2)NC(=O)CN(C)C(=O)[C@H](CC2CCCCC2)N(C)C(=O)CN(C)C(=O)CN(C)C1=O [Compound 2168] ([NMeL]I[Sar][Sar][NMeCha][Sar][hPhe(3-Cl-4-CF3)][NMehSer](Me)[Ac5c][NMeChg][NMeD]-Piperidide; lactam N-11) | 1.3
2 | CC[C@H](C)[C@@H]1NC(=O)[C@H](CC(C)C)N(C)C(=O)C[C@@H](C(=O)N2CCCCC2)N(C)C(=O)[C@H](C2CCCCC2)N(C)C(=O)C2(CCCC2)NC(=O)CN(CCN2CCNCC2)C(=O)[C@H](CCc2ccc(C(F)(F)F)c(Cl)c2)NC(=O)CN(C)C(=O)[C@H](CC2CCCCC2)N(C)C(=O)CN(C)C(=O)CN(C)C1=O [Compound 2184, (11S,17S,26S,29S,33S,36S)-11-[2-[3-chloro-4-(trifluoromethyl)phenyl]ethyl]-36-cyclohexyl-17-(cyclohexylmethyl)-29-isobutyl-15,18,21,24,30,34,37-heptamethyl-26-[(1S)-1-methylpropyl]-9-(2-piperazin-1-ylethyl)-33-(piperidine-1-carbonyl)-6,9,12,15,18,21,24,27,30,34,37-undecazaspiro[4.33]octatriacontane-7.10,13,16,19,22,25,28,31,35,38-undecone] ([NMeL]I[Sar][Sar][NMeCha][Sar][hPhe(3-Cl-4-CF3)][X136][Ac5c][NMeChg][NMeD]-Piperidide; lactam N-11) | 7.9
3 | CC[C@H](C)[C@@H]1NC(=O)[C@H](CC(C)C)N(C)C(=O)C[C@@H](C(=O)N2CCCC2)N(C)C(=O)[C@H]([C@@H](C)CC)N(C)C(=O)C2(CCCC2)NC(=O)[C@@H]2CCCN2C(=O)[C@H](CCc2ccc(C(F)(F)F)c(F)c2)NC(=O)CN(C)C(=O)[C@H](C2CCCC2)N(C)C(=O)[C@@H]2CCN2C(=O)[C@H](C)N(C)C1=O [Compound 313] ([NMeL]I[NMeA][Aze][NMeGly(cPent)][Sar][hPhe(3-F,4-CF3)]P[Ac5c][NMeI][NMeD]-Pyrrolidide; lactam N-11) | 4.2
4 | CC[C@H](C)[C@@H]1NC(=O)[C@H](C)N(C)C(=O)C[C@@H](CC(C)C)NC(=O)[C@H](C(C)C)N(C)C(=O)[C@H](Cc2ccccc2)N(C)C(=O)[C@H](CC(C)C)N(C)C(=O)[C@H](CCc2ccc(C(F)(F)F)cc2)NC(=O)CN(C)C(=O)[C@H](Cc2ccc(Cl)cc2)N(C)C(=O)CN(C)C(=O)CN(C)C1=O [Compound 972] (cyclo(I[Sar][Sar][NMePhe(4-Cl)][Sar][hPhe(4-CF3)][NMeL][NMeF][NMeV][d(β3hL)][NMeA])) | 330
5 | CC[C@H](C)[C@@H]1NC(=O)[C@H](CC(C)C)N(C)C(=O)C[C@@H](C)N(C)C(=O)[C@H]([C@@H](C)CC)N(C)C(=O)C2(CCCC2)NC(=O)[C@@H]2CCCN2C(=O)[C@H](CCc2ccc(C(F)(F)F)c(Cl)c2)NC(=O)CN(C)C(=O)[C@H](C2CCCC2)N(C)C(=O)[C@@H]2CCN2C(=O)[C@H](C)N(C)C1=O [Compound 79] (cyclo([Ac5c][NMeI][NMedβ3hAla][NMeL]I[NMeA][Aze][NMeGly(cPent)][Sar][hPhe(3-Cl-4-CF3)]P)) | 9.3
6 | CC[C@H](C)[C@@H]1NC(=O)[C@H](C(C)C)N(C)C(=O)CCNC(=O)[C@H](CC(C)C)N(C)C(=O)C2(CCCC2)NC(=O)[C@H](CC(C)C)N(C)C(=O)[C@H](CCc2ccc(C(F)(F)F)cc2)NC(=O)CN(C)C(=O)[C@H](Cc2ccc(Cl)cc2)N(C)C(=O)CN(C)C(=O)CN(C)C1=O [Compound 923] (cyclo([Ac5c][NMeL][βAla][NMeV]I[Sar][Sar][NMePhe(4-Cl)][Sar][hPhe(4-CF3)][NMeL])) | 230
7 | CC[C@H](C)[C@@H]1NC(=O)[C@H](C)N(C)C(=O)C[C@@H](C)NC(=O)[C@H](C2CCCC2)N(C)C(=O)C2(CCC2)NC(=O)[C@@H]2CCCN2C(=O)[C@H](CCc2ccc(C(F)(F)F)c(Cl)c2)NC(=O)CN(C)C(=O)[C@H](Cc2ccc(C(F)(F)F)cc2)N(C)C(=O)CN(C)C(=O)CN(C)C1=O [Compound 1486] (cyclo([Ac4c][NMeGly(cPent)][d(β3hA)][NMeA]I[Sar][Sar][NMePhe(4-CF3)][Sar][hPhe(3-Cl-4-CF3)]P)) | 0.5
8 | CC[C@H](C)[C@@H]1NC(=O)[C@H](CC2CC2)N(C)C(=O)C[C@@H](C)NC(=O)[C@H](C(C)C)N(C)C(=O)C2(CCCC2)NC(=O)[C@@H]2CCCN2C(=O)[C@H](CCc2ccc(C(F)(F)F)c(Cl)c2)NC(=O)CN(C)C(=O)[C@H](CC2CCCCC2)N(C)C(=O)[C@@H]2CCN2C(=O)[C@H](C)N(C)C1=O [Compound 771] (cyclo([Ac5c][NMeV][d(β3hA)][NMeAla(cPr)]I[NMeA][Aze][NMeCha][Sar][hPhe(3-Cl-4-CF3)]P)) | 25
9 | CC[C@H](C)[C@@H]1NC(=O)[C@H](CC(C)C)N(C)C(=O)C[C@@H](C(=O)N2CCCCC2)N(C)C(=O)[C@H](C2CCCCC2)N(C)C(=O)C2(CCCC2)NC(=O)[C@H](CCC2CCOCC2)N(C)C(=O)[C@H](CCc2ccc(C(F)(F)F)c(Cl)c2)NC(=O)CN(C)C(=O)[C@H](CC2CCCCC2)N(C)C(=O)CN(C)C(=O)CN(C)C1=O [Compound 2048, (8S,11S,17S,26S,29S,33S,36S)-11-[2-[3-chloro-4-(trifluoromethyl)phenyl]ethyl]-36-cyclohexyl-17-(cyclohexylmethyl)-29-isobutyl-9,15,18,21,24,30,34,37-octamethyl-26-[(1S)-1-methylpropyl]-33-(piperidine-1-carbonyl)-8-(2-tetrahydropyran-4-ylethyl)-6,9,12,15,18,21,24,27,30,34,37-undecazaspiro[4.33]octatriacontane-7,10,13,16,19,22,25,28,31,35,38-undecone] ([NMeL]I[Sar][Sar][NMeCha][Sar][hPhe(3-Cl-4-CF3)][X111][Ac5c][NMeChg][NMeD]-Piperidide; lactam N-11) | 3.5
10 | CC[C@H](C)[C@@H]1NC(=O)[C@H](CC(C)C)N(C)C(=O)C[C@@H](C)NC(=O)[C@H](C(C)C)N(C)C(=O)C2(CCCC2)NC(=O)[C@@H]2CCCN2C(=O)[C@H](CCc2ccc(C(F)(F)F)c(Cl)c2)NC(=O)CN(C)C(=O)[C@H](CC2CCCCC2)N(C)C(=O)[C@@H]2CCN2C(=O)[C@H](COC2CC2)N(C)C1=O [Compound 1102] (cyclo([Ac5c][NMeV][d(β3hA)][NMeL]I[NMeS](Cyclopropyl)[Aze][NMeCha][Sar][hPhe(3-Cl-4-CF3)]P)) | 160
11 | CC[C@H](C)[C@@H]1NC(=O)[C@H](CC(C)C)N(C)C(=O)C[C@@H](C(=O)N(C)C)NC(=O)[C@H]([C@@H](C)CC)N(C)C(=O)C2(CCCC2)NC(=O)[C@@H]2CCCN2C(=O)[C@H](CCc2ccc(C(F)(F)F)c(Cl)c2)NC(=O)CN(C)C(=O)[C@H](CC2CCCCC2)N(C)C(=O)[C@@H]2CCN2C(=O)[C@H](C)N(C)C1=O [Compound 568] ([NMeL]I[NMeA][Aze][NMeCha][Sar][hPhe(3-Cl-4-CF3)]P[Ac5c][NMeI]D-NMe2; lactam N-11) | 8
12 | CCO[C@@H]1C[C@H]2C(=O)NC3(CCCC3)C(=O)N(C)[C@@H](C3CCCC3)C(=O)N(C)[C@H](C)CC(=O)N(C)[C@@H](CC(C)C)C(=O)N[C@@H]([C@@H](C)CC)C(=O)N[C@@H](C)C(=O)N3CC[C@H]3C(=O)N(CC)[C@@H](Cc3ccc(C(F)(F)F)cc3)C(=O)N(C)CC(=O)N[C@@H](CCc3ccc(C(F)(F)F)c(Cl)c3)C(=O)N2C1 [Compound 401] (cyclo(A[Aze][NEtPhe(4-CF3)][Sar][hPhe(3-Cl-4-CF3)][Hyp](Et)[Ac5c][NMeGly(cPent)][NMedβ3hAla][NMeL]I)) | 3.6
